Changes are numbered by the printed parent chain. Names may count otherwise. “And” between values parts separate entries of the source, which are not always exact repeats. Equal entries are not always repeated.
B1: C167A (protein, UniProt P53184 1-216, looked up, variant C167A)
Nicotinamidase: MKTLIVVDMQNDFISPLGSLTVPKGEELINPISDLMQDADRDWHRIVVTRDWHPSRHISFAKNHKDKEPYSTYTYHSPRPGDDSTQEGILWPVHCVKNTWGSQLVDQIMDQVVTKHIKIVDKGFLTDREYYSAFHDIWNFHKTDMNKYLEKHHTDEVYIVGVALEYAVKATAISAAELGYKTTVLLDYTRPISDDPEVINKVKEELKAHNINVVDK
B2: K122R (protein, UniProt P53184 1-216, looked up, variant K122R)
Nicotinamidase: B1 Nicotinamidase with K122R, A167C

Assays:
[1] = molecular target: T1, Pnc1 (Saccharomyces cerevisiae, UniProt P53184); experiment: 13C kinetic isotope effect with substrates; type: biochemical, S. cerevisiae
[2] = system: nicotinamidase from M. lysodeikticus; conditions: cited from earlier work
[3] = molecular target: T1, Pnc1; type: biochemical, S. cerevisiae
[4] = molecular target: T1, Pnc1; experiment: 15N kinetic isotope effect with substrates; type: biochemical, S. cerevisiae
[5] = 25 °C in 0.1 N NaOH; cited from earlier work
[6] = Literature hydrolysis in basic solution; type: physicochemical; conditions: 25 °C in 0.1 N NaOH
[7] = system: yeast nicotinamidases; conditions: previous reports; cited from earlier work
[8] = molecular target: T1, Pnc1; experiment: Dependence of kcat on pH; type: biochemical, S. cerevisiae; conditions: pH 4.5 to 10.5
[9] = system: nicotinamidase from S. cerevisiae; conditions: cited from earlier work
[10] = system: nicotinamidase from M. tuberculosis; conditions: cited from earlier work
[11] = system: Pnc1 WT or mutant; experiment: Steady-state kinetic parameters of Pnc1 mutants, enzyme-coupled assay; type: biochemical, S. cerevisiae; conditions: substrate nicotinamide; for kcat: pH 7.5
[12] = molecular target: Pnc1 WT or mutant (Saccharomyces cerevisiae, UniProt P53184, C167A); experiment: as above; type: biochemical, S. cerevisiae; conditions: substrate nicotinamide
[13] = system: Pnc1 WT or mutant; experiment: 15N kinetic isotope effect of Pnc1 mutants; type: biochemical, S. cerevisiae; conditions: substrate nicotinamide, pH 7.5
[14] = system: Pnc1 WT or mutant; experiment: 13C kinetic isotope effect of Pnc1 mutants; type: biochemical, S. cerevisiae; conditions: substrate nicotinamide, pH 7.5
[15] = molecular target: Pnc1 WT or mutant (Saccharomyces cerevisiae, UniProt P53184, K122R); experiment: 13C kinetic isotope effect of Pnc1 mutants; type: biochemical, S. cerevisiae; conditions: substrate nicotinamide
Sequence of Pnc1 WT or mutant (Saccharomyces cerevisiae, UniProt P53184, K122R) (P53184 whole entry K122R): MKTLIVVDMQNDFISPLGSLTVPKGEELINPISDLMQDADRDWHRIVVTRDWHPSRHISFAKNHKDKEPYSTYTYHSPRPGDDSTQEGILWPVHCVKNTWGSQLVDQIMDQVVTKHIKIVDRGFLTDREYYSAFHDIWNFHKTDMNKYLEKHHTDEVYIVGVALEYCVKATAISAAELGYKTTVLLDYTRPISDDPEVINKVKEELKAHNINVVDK

T1 sequence (P53184 whole entry): as the sequence (P53184 whole entry K122R) above, with R122K counted along it

Molecule	13C KIE ([1]; on V/K, pH 7.5)	fold higher Km compared to nicotinamide [3]	15N KIE ([4]; on V/K, pH 7.5)	fold decreased kcat/Km compared to nicotinamide [3]	pseudo-first-order rate of hydrolysis in basic solutions [5]	13C KIE ([1]; as percent)	15N KIE ([4]; as percent)	kcat [11]	further results
Cc1cncc(C(N)=O)c1 [5-methylnicotinamide]	1.0269 ± 0.0037	6 fold	1.0151 ± 0.0009						Km [2]: 360 µM
NC(=O)c1ccccc1 [benzamide]				200 fold	0.00408 h⁻¹				fold lower kcat compared to nicotinamide [3]: 78 fold; fold slower hydrolysis rate compared to nicotinamide [6]: 7 fold
NC(=O)c1cccnc1 [nicotinamide]	1.0125 ± 0.0004		1.0122 ± 0.0002		0.0301 h⁻¹	~ 1.2%	~ 1.2% and 1.2%		kcat ([3]; substrate of Pnc1, pH 7.5): 0.69 s⁻¹; Km [7]: 6 to 10 µM; critical ionizations in kcat pH profile [8]: no critical ionizations; variation of kcat between the pH extremes [8]: 4 fold
NC(=O)c1cnccn1 [pyrazinamide]	1.0196 ± 0.0023	16 fold	1.0231 ± 0.0007	4.5 fold		2.0%	2.3%		Km [9]: 200 µM; fold faster kcat compared to nicotinamide [3]: 3.7 fold; Km [10]: 300 µM
B1								< 0.0005 s⁻¹	nicotinamidase activity [12]: lost all detectable nicotinamidase activity
B2								0.0009 ± 0.0002 s⁻¹	fold lower kcat compared to Pnc1 WT [11]: 767 fold; 15N KIE [13]: 1.0127 ± 0.0003; 13C KIE [14]: 1.0172 ± 0.0001; 13C effect higher than wild-type enzyme [15]: ~ 0.4%

From article PMC3257521 (Biochemistry, 2011)
